The source of these data is ChEMBL document CHEMBL4742385 (2019).

For orientation: inhibition means the drop in the measured response relative to a control, in per cent.

For experiment [1], the target named is Cyclin-C/Cyclin-dependent kinase 19 (Homo sapiens) (UniProt Q9BWU1+P24863). In words: Inhibition of humanGST-tagged CDK19/Cyc C expressed in Sf21 cells at 1 uM measured after 1 hr by fluorescence plate reader relative to control.
A further experiment relates to RPMI-8226. The experiment is described as follows: Antiproliferative activity against human RPMI-8226 assessed as inhibition of cell growth at 1 uM after 8 days measured after Celltiter-Glo assay relative to control. In kind it is functional. The conditions noted are these: Homo sapiens, RPMI-8226, 192 h, time 8 day. (Cellular ATP, detected with luciferase, serves as a proxy for viable cell number.)

Experiment [2] addresses CDK8/Cyclin C (Homo sapiens) (UniProt P49336+P24863). The experiment is described as follows: Inhibition of human CDK8/Cyc C expressed in Sf21 cells at 1 uM measured after 1 hr by fluorescence plate reader relative to control.

On to `CCN1CCc2cc(NC(=O)/C=C/c3cnccc3-c3cnn(C)c3)ccc2C1`, for which the inhibition worked out at 95% in experiment [1] and 96% in experiment [2]. The inhibition at 1 µM with RPMI-8226 is 58%.

As to `O=C(/C=C/c1cnccc1-c1cnn(C2CC2)c1)Nc1ccc2c(c1)CN(C(=O)C(F)(F)F)CC2`, the inhibition in experiment [1] and in experiment [2] was 98% each time. Besides, the inhibition at 1 µM with RPMI-8226 came to 57%.

In the case of `Cn1cc(-c2ccncc2/C=C/C(=O)Nc2ccc(CN3CCOCC3)c(O)c2)cn1`, the results for the inhibition in experiment [1] and in experiment [2] were 99% and 97%, respectively. Besides, in the experiment with RPMI-8226, the inhibition at 1 µM was determined as 54%.

As to `Cn1cc(-c2ccncc2/C=C/C(=O)Nc2ccc(CCN3CCOCC3)cc2)cn1`, the inhibition was determined as 101% in experiment [1] and 96% in experiment [2]. Further, the inhibition at 1 µM with RPMI-8226 was found to be 59%.

Turning to `COC1CN(Cc2ccc(NC(=O)/C=C/c3cncc(F)c3-c3cnn(C4CC4)c3)cc2)C1`, the inhibition was 100% in experiment [1] and 101% in experiment [2]. Moreover, the inhibition at 1 µM with RPMI-8226 came to 63%.

As for `COc1ncc(-c2ccncc2/C=C/C(=O)Nc2ccc(CN3CCOCC3)cc2F)s1`, the inhibition in experiment [1] worked out at 96%; in experiment [2], 99%. Moreover, in the experiment on RPMI-8226, the inhibition at 1 µM came to 63%.

As to `CC(c1ccc(NC(=O)/C=C/c2cnccc2-c2cnn(C)c2)cc1)N1CCOCC1` (stereo not drawn), the figures for the inhibition in experiment [1] and in experiment [2] were 98% and 96%, respectively. Further, in the experiment on RPMI-8226, the inhibition at 1 µM stood at 57%.

As for `Cn1cc(-c2ccncc2/C=C/C(=O)Nc2ccc(CN3CCOCC3)c(Cl)c2)cn1`, the inhibition in experiment [1] and in experiment [2] was 99% each time. The inhibition at 1 µM in the experiment with RPMI-8226 is 53%.

Take `O=C(/C=C/c1cnccc1-c1cnn(C2CC2)c1)Nc1ccc2c(ccn2CC(F)(F)F)c1`: the inhibition in experiment [1] was found to be 98%; in experiment [2] it was 99%. The inhibition at 1 µM in the experiment with RPMI-8226 came out at 57%.

With `Cn1cc(-c2ccncc2/C=C/C(=O)Nc2ccc3c(c2)CN(CC(F)F)C3)cn1`, the inhibition in experiment [1] worked out at 94%; in experiment [2], 105%. Moreover, the inhibition at 1 µM with RPMI-8226 was 63%.

`Cn1cc(-c2c(F)cncc2/C=C/C(=O)Nc2ccc3c(c2)CN(CC(C)(F)F)C3)cn1`: the inhibition in experiment [1] amounted to 100%; in experiment [2], 106%. Also, the inhibition at 1 µM in the experiment with RPMI-8226 came out at 63%.

Regarding `Cn1cc(-c2c(F)cncc2/C=C/C(=O)Nc2ccc3c(c2)CN(CC(F)(F)F)C3)cn1`, the values for the inhibition in experiment [1] and in experiment [2] were 104% and 106%, respectively. Besides, the inhibition at 1 µM in the experiment on RPMI-8226 was 56%.

For `Cn1cc(-c2ccncc2/C=C/C(=O)Nc2ccc(CN3CCC4(CC3)COC4)cc2)cn1`, the inhibition in experiment [1] and in experiment [2] was 97% in each case. Also, the inhibition at 1 µM in the experiment with RPMI-8226 was determined as 60%.

For `Cn1cc(-c2ccncc2/C=C/C(=O)Nc2ccc(CN3CCOCC3)c(F)c2)cn1`, the inhibition in experiment [1] is 97%; in experiment [2], 99%. The inhibition at 1 µM with RPMI-8226 was 62%.

Turning to `CC(C)(F)Cc1ccc(NC(=O)/C=C/c2cncc(F)c2-c2cnn(C3CC3)c2)cc1`, the inhibition in experiment [1] was 101%; in experiment [2], 99%. Also, in the experiment on RPMI-8226, the inhibition at 1 µM came to 62%.

As for `Cn1cnc2ccc(-c3c(F)cncc3/C=C/C(=O)Nc3ccc(CN4CC(F)(F)C4)cc3)cc21`, the values for the inhibition in experiment [1] and in experiment [2] were 101% and 87%, respectively. Further, in the experiment on RPMI-8226, the inhibition at 1 µM came to 67%.

In the case of `O=C(/C=C/c1cnccc1-c1cnn(C2CC2)c1)Nc1ccc2c(c1)CN(CC(F)(F)CO)C2`, the results for the inhibition in experiment [1] and in experiment [2] were 96% and 102%, respectively. The inhibition at 1 µM in the experiment with RPMI-8226 amounted to 65%.

For the compound `Cn1cc(-c2ccncc2/C=C/C(=O)Nc2ccc3ncsc3c2)cn1`, the inhibition in experiment [1] was found to be 90%; in experiment [2] it was 94%. Further, the inhibition at 1 µM in the experiment with RPMI-8226 stood at 53%.

`Cn1cc(-c2ccncc2/C=C/C(=O)Nc2ccc(Cn3ccnc3)cc2)cn1`: the inhibition stood at 98% in experiment [1] and 102% in experiment [2]. In the experiment on RPMI-8226, the inhibition at 1 µM worked out at 64%.

On to `Cn1cc(-c2ccncc2/C=C/C(=O)Nc2ccc(CC(C)(C)O)cc2)cn1`, for which the inhibition worked out at 101% in experiment [1] and 99% in experiment [2]. For the same compound, in the experiment on RPMI-8226, the inhibition at 1 µM was 62%.

Regarding `COCCn1cnc2ccc(-c3ccncc3/C=C/C(=O)Nc3ccc(CN4CCOCC4)cc3)cc21`, the inhibition in experiment [1] is 97%; in experiment [2] it was 103%. In addition, the inhibition at 1 µM in the experiment on RPMI-8226 came out at 62%.

In the case of `Cn1cc2cc(-c3ccncc3/C=C/C(=O)Nc3ccc(CN4CCOCC4)cc3)ccc2n1`, the inhibition was 93% in experiment [1] and 97% in experiment [2]. Besides, in the experiment with RPMI-8226, the inhibition at 1 µM came to 52%.

Take `O=C(/C=C/c1cnccc1-c1cnn(C2CC2)c1)Nc1ccc(CN2CC3(COC3)C2)cc1`: the inhibition stood at 98% in experiment [1] and 110% in experiment [2]. Moreover, the inhibition at 1 µM with RPMI-8226 is 56%.

On to `O=C(/C=C/c1cnccc1-c1cnn(CC2CC2)c1)Nc1ccc(CN2CCOCC2)cc1`, for which the inhibition in experiment [1] worked out at 99%; in experiment [2], 98%. The inhibition at 1 µM with RPMI-8226 was found to be 55%.

For the compound `Cn1cc(-c2ccncc2/C=C/C(=O)Nc2ccc(CNC3CC(F)(F)C3)cc2)cn1`, the results for the inhibition in experiment [1] and in experiment [2] were 97% and 96%, respectively. The inhibition at 1 µM in the experiment on RPMI-8226 amounted to 63%.

For `Cn1cc(-c2ccncc2/C=C/C(=O)Nc2ccc3c(c2)OCO3)cn1`, the results for the inhibition in experiment [1] and in experiment [2] were 94% and 96%, respectively. For the same compound, the inhibition at 1 µM with RPMI-8226 is 53%.

Take `Cn1cc(-c2ccncc2/C=C/C(=O)Nc2ccc(CC(F)(F)F)cc2)cn1`: the inhibition in experiment [1] stood at 92%; in experiment [2], 99%. In addition, the inhibition at 1 µM with RPMI-8226 came out at 60%.

Consider `Cn1cc(-c2ccc(NC(=O)/C=C/c3cnccc3-c3cnn(C4CC4)c3)cc2)cn1`, for which the values for the inhibition in experiment [1] and in experiment [2] were 97% and 92%, respectively. In addition, in the experiment with RPMI-8226, the inhibition at 1 µM was determined as 58%.

In the case of `CC1CN(Cc2ccc(NC(=O)/C=C/c3cnccc3-c3cnn(C)c3)cc2)CCO1` (stereo not drawn), the inhibition amounted to 97% in experiment [1] and 99% in experiment [2]. The inhibition at 1 µM with RPMI-8226 was determined as 55%.

Take `Cn1cc(-c2ccncc2/C=C/C(=O)Nc2ccc(CCC(F)(F)F)cc2)cn1`: the inhibition in experiment [1] was 99%; in experiment [2], 98%. In addition, in the experiment on RPMI-8226, the inhibition at 1 µM is 53%.

For `Cn1cc(-c2ccncc2/C=C/C(=O)Nc2ccc3ccncc3c2)cn1`, the inhibition in experiment [1] and in experiment [2] was 94% each time. Also, the inhibition at 1 µM in the experiment with RPMI-8226 was determined as 55%.

For the compound `CC1CN(Cc2ccc(NC(=O)/C=C/c3cnccc3-c3cnn(C4CC4)c3)cc2)C1`, the inhibition in experiment [1] was 97%; in experiment [2], 102%. Moreover, the inhibition at 1 µM in the experiment with RPMI-8226 is 55%.

As for `Cn1cc(-c2ccncc2/C=C/C(=O)Nc2ccc3cnccc3c2)cn1`, the inhibition in experiment [1] was determined as 99%; in experiment [2], 96%. In addition, the inhibition at 1 µM with RPMI-8226 turned out to be 62%.

Take `Cn1cnc2ccc(-c3ccncc3/C=C/C(=O)Nc3ccc4c(ccn4CC(F)(F)F)c3)cc21`: the inhibition turned out to be 84% in experiment [1] and 85% in experiment [2]. In addition, the inhibition at 1 µM with RPMI-8226 came to 63%.

On to `Cn1cc(-c2ccncc2/C=C/C(=O)Nc2ccc3c(c2)CCC3=O)cn1`, for which the inhibition came out at 87% in experiment [1] and 92% in experiment [2]. Further, the inhibition at 1 µM with RPMI-8226 worked out at 54%.

With `Cn1cc(-c2ccncc2/C=C/C(=O)Nc2ccc3c(c2)CCN3)cn1`, the inhibition in experiment [1] is 96%; in experiment [2], 97%. Further, in the experiment with RPMI-8226, the inhibition at 1 µM is 58%.
